According to PubChem BioAssay (NCI):
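These data come from cells grown in 96-well plates and exposed to compound for 48 hours at five concentrations. The concentration for full growth arrest is given as TGI.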

Assays:
Test in all cases: NCI anticancer screen, dose series, 48 h
SK-OV-3 ovarian = test system: SK-OV-3 ovarian
COLO 205 colon = test system: COLO 205 colon
OVCAR-5 ovarian = test system: OVCAR-5 ovarian
NCI-H23 lung = test system: NCI-H23 lung
SF-268 CNS = test system: SF-268 CNS
SF-295 CNS = test system: SF-295 CNS
T-47D breast = test system: T-47D breast
IGROV1 ovarian = test system: IGROV1 ovarian
CAKI-1 renal = test system: CAKI-1 renal
UACC-257 melanoma = test system: UACC-257 melanoma

Row | SMILES | TGI (SK-OV-3 ovarian) [µM] | TGI (COLO 205 colon) [µM] | TGI (OVCAR-5 ovarian) [µM] | TGI (NCI-H23 lung) [µM] | TGI (SF-268 CNS) [µM] | TGI (SF-295 CNS) [µM] | TGI (T-47D breast) [µM] | TGI (IGROV1 ovarian) [µM] | TGI (CAKI-1 renal) [µM] | TGI (UACC-257 melanoma) [µM]
1 | Clc1cc(OCC23CC4CC(CC(C4)C2)C3)nc(OCC23CC4CC(CC(C4)C2)C3)n1 | > 100 | > 100 | > 100 | > 100 | > 100 | > 100 | > 100 | > 100 | > 100 | > 100
2 | COP(=O)(OC)c1ccc(NCc2cc(O)ccc2O)cc1 | > 100 | > 64.6 | > 60.1 | > 75.8 | 43.6 | 35.2 | 70.1 | > 67.1 | 34.6 | > 56.1
3 | COc1cc([C@@H]2c3cc4c(cc3[C@@H](N=Cc3ccc(C(=O)O[C@@H](C(=O)O[C@H]5C[C@@]6(O)[C@@H](OC(=O)c7ccccc7)[C@@H]7[C@]8(OC(C)=O)CO[C@@H]8C[C@H](O)[C@@]7(C)C(=O)[C@H](OC(C)=O)C(=C5C)C6(C)C)[C@@H](NC(=O)c5ccccc5)c5ccccc5)cc3)[C@H]3COC(=O)[C@H]23)OCO4)cc(OC)c1O | > 22.7 |  |  | > 18.5 | > 50 | 24.8 | > 50 | > 50 | > 50 | > 50
4 | O=C1c2ccccc2-c2nnc(-c3ccc(Cl)cc3)cc21 | > 10 | > 10 | > 10 | > 10 | > 10 | > 10 | > 10 | > 10 | > 10 | > 10
5 | O=C(Cn1c(=O)oc2ccc(C(=O)c3ccccc3Cl)cc21)c1ccc([N+](=O)[O-])cc1 | 66 | 39.6 | > 100 | > 100 | > 100 | 81.7 | 56.5 | > 100 | > 100 | 90.3
6 | CNc1ncnc2c1nnn2C | > 100 | > 100 |  | > 100 |  | > 100 | > 100 | > 100 | > 100 | > 100
7 | CN1CCN(/C(N)=C(\C#N)C(=O)Nc2ccccc2)CC1 | > 100 | > 100 | > 100 | > 100 |  | > 100 | > 100 | > 100 | > 100 | > 100
8 | O=S(=O)(O)c1cc(Nc2ccnc3ccccc23)c2c(S(=O)(=O)O)cc(S(=O)(=O)O)cc2c1 | > 100 | > 100 | > 100 | > 100 | > 100 |  | > 100 | > 100 | > 100 | > 100
9 | COc1cc(O)c2c(=O)c(OC)c(-c3ccc4c(c3)OCO4)oc2c1OC | > 50 | > 50 | > 50 | > 50 | > 50 | > 50 | > 50 | > 50 | > 50 | > 50
10 | CC(C)(C)OC(=O)N1Cc2cc(O)ccc2C[C@H]1C(=O)O | > 100 | > 100 | > 100 | > 100 | > 100 | > 100 | > 100 | > 100 | > 100 | > 100
11 | CCCCCCCCCCCCCCCCCCOc1ccc(/C=C/C2=[N+](CCCl)CCO2)cc1 | > 100 | > 100 | > 100 |  |  | > 100 | > 100 | > 100 | > 100 | > 100
12 | O=[N+]([O-])c1ccc2nc(/C=C(\O)c3ccccc3)c(/C=C(\O)c3ccccc3)nc2c1 | > 75.4 | > 100 | > 100 | > 60.4 | 53.4 | 48.3 | 37.3 | > 56.4 | > 79 | > 100
13 | c1ccc(CCN2CCN=C2Cc2ccccc2)cc1 | > 100 | > 100 | > 100 | > 100 | > 100 | > 100 | > 100 | > 100 |  | > 100
14 | COc1ccc(/C=N\NC(=O)Nc2cccc3ccccc23)cc1 |  | > 100 | > 100 | > 100 | > 100 |  | 38.2 | > 100 | 35.3 | > 100
15 | CC1C2CC(CC2N)C1(C)C (stereo not given) | > 100 | > 100 | > 100 | > 100 | > 100 | > 100 | > 100 | > 100 | > 100 | > 100
16 | O=c1oc2c/c(=C\c3ccccc3)c(=O)c3cccc1c3-2 | > 100 | > 100 | > 100 | > 100 | 58.7 | > 100 | 55.5 | 56.7 | 55.8 | > 100
17 | CCOC(=O)c1cn(CC)c2cc3c(cc2c1=O)CCS3(=O)=O | > 100 |  | > 100 | > 100 | > 100 | > 100 | > 100 | > 100 |  | 
18 | Cc1oncc1NC1=CC(=O)C(=O)c2ccccc21 | 37.8 | 37.1 | 26.5 | 17.6 | 30.3 | 20.6 | 11.5 | 11.8 | 22.6 | 9.34
19 | CCOC(=O)C1=CC(C)(C(=O)OCC)Nc2c(nc(SC)n(C)c2=O)N1 (stereo not given) | > 10 | > 10 | > 10 | > 10 | > 10 | > 10 | > 10 | > 10 | > 10 | > 10
20 | COC(=O)c1c(O)ccc2c1c1c(n2Cc2ccccn2)C(=O)c2ccccc2C1=O | 61.1 | 34.3 | > 100 | > 100 | > 100 | 70.6 | > 100 | > 100 | > 100 | > 100
21 | CNC(=O)c1ccccc1[S+]1c2cccc3cccc(c23)C(=O)N1C (stereo not given) |  | > 100 | > 100 | > 100 | > 100 | > 100 | > 100 | > 100 | > 100 | > 100
